Measurements from ChEMBL document CHEMBL4739717, “Methods of treating cartilage disorders through inhibition of clk and dyrk” (2020).
Activity calls are given as the source filed them. The calls are words filed in the database; no cut-off is given here.

Experiments:
[1] = molecular target: Dual specificity tyrosine-phosphorylation-regulated kinase 1A (Homo sapiens, UniProt Q13627); experiment: Inhibition of recombinant DYRK1A (unknown origin) using Ser/Thr 18 peptide as substrate incubated for 1 hr in presence of ATP by FRET assay
[2] = Induction of chondrogenesis in human MSC assessed as incubated for 6 days by rhodamine B and Nile red staining based imaging analysis; assay type: functional; conditions: bmmsc
[3] = Induction of chondrogenesis in human MSC assessed as maximum activity at 20.58 nM incubated for 6 days by rhodamine B and Nile red staining based imaging analysis relative to control; assay type: functional; conditions: BMMSC, 144 h, time 6 day
[4] = Effect on Wnt signaling pathway in human SW480 cells harbouring TCF/LEF luciferase reporter gene and SP5-Luc reporter gene incubated for 36 to 48 hrs by luminescence assay; assay type: cell-based
[5] = Induction of chondrogenesis in human MSC assessed as maximum activity at 100 nM incubated for 6 days by rhodamine B and Nile red staining based imaging analysis relative to control; assay type: functional; conditions: BMMSC, 144 h, time 6 day
[6] = system: Chondrocyte; experiment: Inhibition of IL1-beta induced MMP-13 expression levels in human chondrocytes assessed as MMP-13 levels incubated for 2hrs followed by IL1-beta stimulation and measured after 24 hrs by qRT-PCR analysis; assay type: functional; conditions: time 26.0 hrs
[7] = system: Chondrocyte; experiment: Inhibition of IL1-beta induced MMP1 expression levels in human chondrocytes assessed as MMP1 levels incubated for 2hrs followed by IL1-beta stimulation and measured after 24 hrs by qRT-PCR analysis; assay type: functional; conditions: time 26.0 hrs
[8] = system: Chondrocyte; experiment: Inhibition of IL1-beta induced MMP3 expression levels in human chondrocytes assessed as MMP3 levels incubated for 2hrs followed by IL1-beta stimulation and measured after 24 hrs by qRT-PCR analysis; assay type: functional; conditions: time 26.0 hrs
[9] = Induction of chondrogenesis in human MSC assessed as maximum activity at 30 nM incubated for 6 days by rhodamine B and Nile red staining based imaging analysis relative to control; assay type: functional; conditions: BMMSC, 144 h, time 6 day
[10] = Inhibition of IL1-beta induced MMP3 expression levels in human chondrocytes assessed as MMP3 levels incubated for 2hrs followed by IL1-beta stimulation and measured after overnight incubation by LANCE assay; assay type: functional, cell-based; conditions: Chondrocyte
[11] = Induction of chondrogenesis in human MSC assessed as maximum activity at 2700 nM incubated for 6 days by rhodamine B and Nile red staining based imaging analysis relative to control; assay type: functional; conditions: BMMSC, 144 h, time 6 day
[12] = Induction of chondrogenesis in human MSC assessed as maximum activity at 900 nM incubated for 6 days by rhodamine B and Nile red staining based imaging analysis relative to control; assay type: functional; conditions: BMMSC, 144 h, time 6 day
[13] = Induction of chondrogenesis in human MSC assessed as maximum activity at 61.73 nM incubated for 6 days by rhodamine B and Nile red staining based imaging analysis relative to control; assay type: functional; conditions: BMMSC, 144 h, time 6 day
[14] = Induction of chondrogenesis in human MSC assessed as maximum activity at 10 nM incubated for 6 days by rhodamine B and Nile red staining based imaging analysis relative to control; assay type: functional; conditions: BMMSC, 144 h, time 6 day
[15] = molecular target: Dual specificity protein kinase CLK3 (Homo sapiens, UniProt P49761); experiment: Inhibition of recombinant CLK3 (unknown origin) using Ser/Thr 18 peptide as substrate incubated for 1 hr in presence of ATP by FRET assay
Dual specificity protein kinase CLK3, sequence (P49761 whole entry): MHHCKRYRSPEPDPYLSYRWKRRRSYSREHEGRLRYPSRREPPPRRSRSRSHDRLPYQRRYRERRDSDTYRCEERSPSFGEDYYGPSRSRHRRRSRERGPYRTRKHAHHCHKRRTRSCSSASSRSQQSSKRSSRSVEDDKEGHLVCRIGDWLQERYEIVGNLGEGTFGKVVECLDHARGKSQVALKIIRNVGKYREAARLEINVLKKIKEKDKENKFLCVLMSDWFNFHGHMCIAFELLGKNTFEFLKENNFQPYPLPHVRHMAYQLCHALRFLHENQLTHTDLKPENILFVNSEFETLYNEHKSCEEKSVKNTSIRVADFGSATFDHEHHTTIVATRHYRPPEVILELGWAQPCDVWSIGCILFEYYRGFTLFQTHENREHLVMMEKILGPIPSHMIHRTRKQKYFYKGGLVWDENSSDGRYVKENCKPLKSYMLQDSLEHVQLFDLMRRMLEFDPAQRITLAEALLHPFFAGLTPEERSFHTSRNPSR

[16] = molecular target: Dual specificity protein kinase CLK2 (Homo sapiens, UniProt P49760); experiment: Inhibition of recombinant CLK2 (unknown origin) using Ser/Thr 6 peptide as substrate incubated for 1 hr in presence of ATP by FRET assay
Dual specificity protein kinase CLK2, sequence (P49760 whole entry): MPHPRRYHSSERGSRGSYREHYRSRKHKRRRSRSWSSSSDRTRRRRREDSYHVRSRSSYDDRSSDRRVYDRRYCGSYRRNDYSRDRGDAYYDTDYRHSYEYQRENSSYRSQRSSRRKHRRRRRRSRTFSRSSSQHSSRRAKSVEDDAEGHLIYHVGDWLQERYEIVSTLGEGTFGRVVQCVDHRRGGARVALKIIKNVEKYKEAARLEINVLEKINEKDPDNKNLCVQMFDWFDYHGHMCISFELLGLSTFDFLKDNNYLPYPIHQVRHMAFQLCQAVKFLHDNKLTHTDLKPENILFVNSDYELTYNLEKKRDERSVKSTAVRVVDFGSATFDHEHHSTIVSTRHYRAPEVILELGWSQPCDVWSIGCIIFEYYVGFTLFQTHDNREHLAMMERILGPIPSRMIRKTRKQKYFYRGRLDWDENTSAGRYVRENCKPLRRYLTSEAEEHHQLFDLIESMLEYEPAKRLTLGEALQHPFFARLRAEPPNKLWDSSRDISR

[17] = Inhibition of IL1-beta induced MMP3 expression levels in human chondrocytes assessed as MMP3 levels incubated for 2hrs followed by IL1-beta stimulation and measured after overnight incubation by LANCE assay relative to control; assay type: functional, Chondrocyte

SMILES	EC50 [1] [nM]	EC50 [2] [nM]	EC50 [4] [nM]	EC50 [10] [nM]	also measured
Cc1n[nH]c2ccc(-c3cncc(OC[C@H](N)Cc4ccccc4)n3)cc12	4	30	256		Emax at 0.1 µM [5]: 52.1%; Activity [6]: inactive; Activity [7]: inactive; Activity [8]: inactive
O=C1CCc2cccc(c2)-c2cncc(c2)NC(=O)c2n[nH]c3ccc(cc23)-c2cncc(c2)CN1		30	> 10000	10	Emax at 0.03 µM [9]: 69.4%; Activity [6]: inactive; Activity [7]: inactive; Activity [8]: inactive
CC(C)Oc1cncc(C(=O)Nc2c[nH]nc2C(=O)Nc2ccc(OC3CCN(C)CC3)nc2)c1	4	2700	90.3	1.5	Emax at 2.7 µM [11]: 140%
O=C(Nc1cccnc1)c1n[nH]c2ccc(-c3cncc(CN4CC5CC(C4)O5)c3)cc12		900	67	3000	Emax at 0.9 µM [12]: 121%
CN1CCN(c2cc(Nc3ncc4c(-c5ccc6ncccc6c5)c[nH]c4n3)ccn2)CC1	1	30	284	9980	Activity [6]: inactive; Emax at 0.01 µM [14]: 73.4%; Activity [8]: inactive
CC(C)N1CCC(Oc2cc(C(=O)Nc3cc4cc(-c5cnn6c5CCNC6)ccc4cn3)ccn2)CC1	11			75.8	Activity [8]: inactive
O=C(Nc1ccc(CN2CCCC2)cc1)c1n[nH]cc1/C=C/c1cccnc1	4	900	988	3.7	Emax at 2.7 µM [11]: 194%
CN1CCC(Oc2ccc(C(=O)Nc3cc4cc(-c5cnn(C)c5)ccc4cn3)cc2)CC1				3000	Emax at 0.01 µM [14]: 25.4%; Activity [8]: inactive
CN1CCCn2cc(nn2)-c2nccc3[nH]c(nc23)-c2n[nH]c3ccc(cc23)-c2cncc(c2)C1	4	10	338	3780	Activity [6]: inactive; Emax at 0.01 µM [14]: 181%; Activity [8]: inactive
Fc1cccc(-c2cccc3[nH]c(-c4n[nH]cc4/C=C/c4cncc(CN5CCCC5)c4)nc23)c1	20	2700	82.1	1.4	Emax at 2.7 µM [11]: 81.7%; Activity [7]: inactive; Activity [8]: inactive
Cc1n[nH]c2ccc(-c3cncc(N[C@H]4CCNC[C@@H]4F)n3)cc12	1		84.3		Emax at 0.03 µM [9]: 25.6%; EC50 [15]: 424 nM; Activity [6]: inactive; EC50 [16]: 1 nM; Activity [7]: inactive; Activity [8]: inactive
CN1CCN(c2ccc(NC(=O)c3n[nH]c4ccc(-c5cncc(NC(=O)c6c(F)cccc6F)c5)cc34)cn2)CC1	3		226	3000	EC50 [15]: 81 nM; Imax [17]: 54.9%; EC50 [16]: 1 nM
COc1cncc(C(=O)Nc2c[nH]nc2C(=O)Nc2ccc(N3CCC(F)(F)C3)nc2)c1	14	300	5.7	2.2	Emax at 0.9 µM [12]: 124%; EC50 [15]: > 10000 nM
NC1CN(c2cncc(-c3ccc4[nH]nc(-c5nc6ccncc6[nH]5)c4c3)n2)C1	3		344	20.8	EC50 [15]: 182 nM; Imax [17]: 61.5%; EC50 [16]: 1 nM
Cn1cc(-c2cc3c(C(=O)Nc4ccc(CN5CCCC5)cc4)n[nH]c3cc2F)cn1	1		242	3000	Emax at 0.1 µM [5]: 27.4%; Activity [7]: inactive; Activity [8]: inactive
Cc1n[nH]c2cc(F)c(-c3cncc(O[C@H]4CCNC[C@@H]4F)n3)cc12	6		630		EC50 [15]: 1300 nM; Activity [6]: inactive; EC50 [16]: 1 nM; Activity [7]: inactive
O=C(Nc1cncc(-c2ccc3[nH]nc(-c4cc5cnccc5[nH]4)c3c2)c1)C1CCCCC1	2	30	285	6.7	Imax [17]: 100%; Emax at 2.7 µM [11]: 155%
CC(C)NC(=O)c1n[nH]c2ccc(-c3cncc(CN4CCC(F)(F)CC4)c3)cc12		2700	47.1	8	Emax at 2.7 µM [11]: 104%
CN1CCN(c2nccc3[nH]c(-c4n[nH]cc4/C=C/c4cncc(F)c4)nc23)CC1	10		325	3000	Activity [6]: inactive; Emax at 0.01 µM [14]: 39%; Activity [8]: inactive
Cn1cncc1-c1ccc2cnc(NC(=O)c3ccc(F)cc3)cc2c1				3000	Emax at 2.7 µM [11]: 24.9%
C[C@@H]1CN(c2ccc(NC(=O)c3n[nH]c4ccc(-c5cncc(CN6CCCCC6)c5)cc34)cn2)C[C@H](C)O1		2700	2.8		Emax at 2.7 µM [11]: 129%
CN1CCN(c2cc(C(=O)Nc3cc4cc(-c5cnn(C)c5)ccc4cn3)ccn2)CC1					Activity [6]: inactive; Emax at 0.01 µM [14]: 27.1%
O=C(Nc1cc2cc(-c3cncc(N[C@H]4CCNC[C@@H]4F)n3)ccc2cn1)C1CC1		2700	9.5	3000	EC50 [15]: 11 nM; EC50 [16]: 1 nM; Emax at 2.7 µM [11]: 68%

Continued, in another order:

EC50 [1] [nM]	EC50 [2] [nM]	EC50 [4] [nM]	EC50 [10] [nM]	SMILES	also measured
8	20.6	> 10000		CCNCc1cncc(-c2ccc3[nH]nc(-c4nc5c(-c6cc(F)cc(NCCN(C)C)c6)ccnc5[nH]4)c3n2)c1	Emax at 0.02058 µM [3]: 149%
9	300	1660	3000	CC(C)Nc1cncc(-c2ccc3[nH]nc(-c4nc5c(-c6cc(F)cc(NCCN(C)C)c6)cncc5[nH]4)c3n2)c1	Emax at 2.7 µM [11]: 96.8%
12		> 10000		CCNCc1cncc(-c2ccc3[nH]nc(-c4nc5c(-c6cc(F)cc(NCCN(C)C)c6)nccc5[nH]4)c3n2)c1	Emax at 0.06173 µM [13]: 35.6%
4		10	40.6	CN(C)C(=O)Nc1cncc(-c2cnc3[nH]nc(-c4nc5c(-c6cccc(F)c6)cncc5[nH]4)c3c2)c1	Emax at 0.9 µM [12]: 68.1%
46	20.6	120		COc1cncc(-c2ccc3[nH]nc(-c4nc5c(-c6cccc(F)c6)nccc5[nH]4)c3n2)c1	Emax at 0.02058 µM [3]: 60.4%
31	20.6	> 10000		Oc1cncc(-c2ccc3[nH]nc(-c4nc5c(-c6cccc(F)c6)cncc5[nH]4)c3n2)c1	Emax at 0.02058 µM [3]: 53.6%
90		> 10000		CCC(=O)Nc1cncc(-c2ccc3[nH]nc(-c4nc5c(N6CCCCC6)ccnc5[nH]4)c3n2)c1	Emax at 0.02058 µM [3]: 38.3%
40	20.6			COc1cncc(-c2ccc3[nH]nc(-c4nc5c(-c6cccc(F)c6)cncc5[nH]4)c3n2)c1	Emax at 0.06173 µM [13]: 55.5%
16	20.6	> 10000		Fc1cccc(-c2cncc3[nH]c(-c4n[nH]c5ccc(-c6cn[nH]c6)nc45)nc23)c1	EC50 [15]: > 10000 nM; Emax at 0.02058 µM [3]: 51.8%
51				COc1cncc(-c2ccc3[nH]nc(-c4nc5c(-c6cccc(F)c6)ccnc5[nH]4)c3n2)c1	Emax at 0.06173 µM [13]: 47%
43	2.29	375		Oc1cncc(-c2ccc3[nH]nc(-c4nc5c(-c6cccc(F)c6)ccnc5[nH]4)c3n2)c1	Emax at 0.02058 µM [3]: 59.3%
30		> 10000		CC(C)C(=O)Nc1cncc(-c2ccc3[nH]nc(-c4nc5c(-c6cccnc6)ccnc5[nH]4)c3n2)c1	Emax at 0.06173 µM [13]: 26.1%
2	100	> 10000	1150	Cc1cn(-c2cncc3[nH]c(-c4n[nH]c5ccc(-c6cncc(NC(=O)C(C)(C)C)c6)nc45)nc23)cn1	Emax at 2.7 µM [11]: 150%
36		> 10000		CCC(=O)Nc1cncc(-c2ccc3[nH]nc(-c4nc5c(-c6cccc(F)c6)ccnc5[nH]4)c3n2)c1	Emax at 0.06173 µM [13]: 29.3%
46	20.6	3600		CCCC(=O)Nc1cncc(-c2ccc3[nH]nc(-c4nc5c(-c6ccsc6)cncc5[nH]4)c3n2)c1	Emax at 0.02058 µM [3]: 58.4%
